Assay results as given in patent US9469608B2, “Thrombin inhibitors” (Merck Sharp & Dohme Corp., priority 2012, dated 2016).
Like-named read-outs stand apart in the source and are kept apart here.

Molecular target: human α-thrombin (Homo sapiens (Human), UniProt P00734)
Assay: In vitro assay for determining proteinase inhibition (thrombin Ki)
Type: biochemical
Procedure: NMR determinations were made using 400 MHz field strength. Ki data was obtained according to the procedure described in Lewis, et al. Thromb. […] Reactions sensitive to moisture or air were performed under nitrogen or argon using anhydrous solvents and reagents. […] Typically, the analytical LC-MS system used consisted of a Waters ZQ platform with electrospray ionization in positive ion detection mode with an Agilent 1100 series HPLC with autosampler. The column was usually a Water Xterra MS C18, 3.0×50 mm, 5 μm. The flow rate was 1 mL/min, and the injection volume was 10 μL. UV detection was in the range 210-400 nm. […] Preparative HPLC purifications were usually performed using a mass spectrometry directed system. […] The mobile phases consisted of mixtures of acetonitrile (10-100%) in water containing 0.1% TFA. Flow rates were maintained at 50 mL/min, the injection volume was 1800 μL, and the UV detection range was 210-400 nm. Mobile phase gradients were optimized for the individual compounds. Reactions performed using microwave irradiation were normally carried out using an Emrys Optimizer manufactured by Personal Chemistry, or an Initiator manufactured by Biotage. Concentration of solutions was carried out on a rotary evaporator under reduced pressure. Flash chromatography was usually performed using a Biotage Flash Chromatography apparatus (Dyax Corp.) on silica gel ([…], 60 Å pore size) in pre-packed cartridges of the size noted. ^1H NMR spectra were acquired at 500 MHz spectrometers in CDCl3 solutions unless otherwise noted. Chemical shifts were reported in parts per million (ppm). Tetramethylsilane (TMS) was used as internal reference in CD3Cl solutions, and residual CH3OH peak or TMS was used as internal reference in CD3OD solutions. Coupling constants (J) were reported in hertz (Hz). Chiral analytical chromatography was performed on one of Chiralpak AS, Chiralpak AD, Chiralcel OD, Chiralcel IA, or Chiralcel OJ columns (250×4.6 mm) (Daicel Chemical Industries, Ltd.) with noted percentage of either ethanol in hexane (% Et/Hex) or isopropanol in heptane (% IPA/Hep) as isocratic solvent systems. Chiral preparative chromatography was conducted on one of Chiralpak AS, Chiralpak AD, Chiralcel OD, Ciralcel IA, or Chiralcel OJ columns (20×250 mm) (Daicel Chemical Industries, Ltd.) with desired isocratic solvent systems identified on chiral analytical chromatography or by supercritical fluid (SFC) conditions. Celite® (Fluka) diatomite is diatomaceous earth, and can be referred to as “celite”.
Relevant in vitro assays are referenced in Morrissette, et al., Bioorg. […] The assays were carried out at 25° C. in 0.05 M TRIS buffer pH 7.4, 0.15 M NaCl, 0.1% PEG. Trypsin assays also contained 1 mM CaC12.
Concentrations of stock solutions of Z-GPR-afc were determined from measurements of absorbance at 380 nm of the 7-amino-4-trifluoromethyl coumarin produced upon complete hydrolysis of an aliquot of the stock solution by thrombin.
Activity assays were performed by diluting a stock solution of substrate at least tenfold to a final concentration ≦0.1 Km into a solution containing enzyme or enzyme equilibrated with inhibitor. Times required to achieve equilibration between enzyme and inhibitor were determined in control experiments. Initial velocities of product formation in the absence (Vo) or presence of inhibitor (Vi) were measured. Assuming competitive inhibition, and that unity is negligible compared Km/[S], [I]/e, and [I]/e (where [S], [I], and e respectively represent the total concentrations, of substrate, inhibitor and enzyme), the equilibrium constant (Ki) for dissociation of the inhibitor from the enzyme can be obtained from the dependence of Vo/Vi on [I] shown in the following equation.

[1] = 25° C., 0.05 M TRIS buffer pH 7.4, 0.15 M NaCl, 0.1% PEG, competitive inhibition assumed

In the case of `NCc1ccc(Cl)cc1CNC(=O)[C@@H]1CCCN1C(=O)C1(O)CCCc2ncccc21` (stereo partly drawn) [Compound 30-6, (2S)-N-{2-(Aminomethyl)-5-chlorobenzyl}-1-(5-hydroxy-5,6,7,8-tetrahydroquinoline-5-carbonyl)pyrrolidine-2-carboxamide bis(2,2,2-trifluoroacetate)], the Ki [1] is reported as 11 nM.

`NCc1ccc(Cl)cc1CNC(=O)[C@@H]1CCCN1C(=O)C1(O)CCCc2cnccc21` (stereo partly drawn) [Compound 31-7, (2S)-N-{2-(Aminomethyl)-5-chlorobenzyl}-1-(5-hydroxy-5,6,7,8-tetrahydroisoquinoline-5-carbonyl)pyrrolidine-2-carboxamide bis(2,2,2-trifluoroacetate)] was tested, and the Ki [1] was 4.8 nM.

`NCc1ccc(Cl)cc1CNC(=O)[C@@H]1CCCN1C(=O)C1(O)CCCc2cccnc21` (stereo partly drawn) [Compound 32-7, (2S)-N-{2-(aminomethyl)-5-chlorobenzyl}-1-(8-hydroxy-5,6,7,8-tetrahydroquinoline-8-carbonyl)pyrrolidine-2-carboxamide bis(2,2,2-trifluoroacetate)] was tested, and the Ki [1] was 3.9 nM.

`NCc1ccc(Cl)cc1CNC(=O)[C@@H]1CCN1C(=O)C1OCc2ccccc21` (stereo partly drawn) [Compound 33-7, (2S)-N-{2-(Aminomethyl)-5-chlorobenzyl}-1-(1,3-dihydroisobenzofuran-1-carbonyl)azetidine-2-carboxamide-2,2,2-trifluoroacetate] was tested, and the Ki was 39 nM.

`NCc1ccc(Cl)cc1CNC(=O)[C@@H]1CCN1C(=O)C1NCc2ccccc21` (stereo partly drawn) [Compound 34-7, (2S)-N-{2-(aminomethyl)-5-chlorobenzyl}-1-(isoindoline-1-carbonyl)azetidine-2-carboxamide bis(2,2,2-trifluoroacetate)] showed a Ki [1] of 2.5 nM.

`NCc1ccc(Cl)cc1CNC(=O)[C@@H]1CCN1C(=O)C1CNc2ccccc21` (stereo partly drawn) [Compound 35-7, (2S)-N-{2-(Aminomethyl)-5-chlorobenzyl}-1-(indoline-3-carbonyl)azetidine-2-carboxamide bis(2,2,2-trifluoroacetate)] showed a Ki [1] of 110 nM.

In the case of `O=C(NCc1cc(Cl)ccc1-n1cnnn1)[C@@H]1CCCN1C(=O)C1(O)CCc2cccnc21` (stereo partly drawn) [Compound 36-3, (2S)-N-{5-Chloro-2-(1H-tetrazol-1-yl)benzyl}-1-(7-hydroxy-6,7-dihydro-5H-cyclopenta[b]pyridine-7-carbonyl)pyrrolidine-2-carboxamide], the Ki [1] is reported as 2.5 nM.

`NCc1ccc(Cl)cc1CNC(=O)[C@@H]1CCCN1C(=O)[C@H]1CCCO1` [Compound 38-4, (S)—N-{2-(Aminomethyl)-5-chlorobenzyl}-1-{(R)-tetrahydrofuran-2-carbonyl}pyrrolidine-2-carboxamide-2,2,2-trifluoroacetate] showed a Ki of 100 nM.

With `NCc1ccc(Cl)cc1CNC(=O)[C@@H]1CCCN1C(=O)c1ncccn1` [Compound 42-3, (S)—N-(2-(Aminomethyl)-5-chlorobenzyl)-1-(pyrimidine-2-carbonyl)pyrrolidine-2-carboxamide bis(2,2,2-trifluoroacetate)] the Ki [1] was 260 nM.

`C[C@@]1(C(=O)NCc2cc(Cl)ccc2CN)CCCN1C(=O)[C@H]1CCC(=O)N1` [Compound 43, (S)-N-(2-(aminomethyl)-5-chlorobenzyl)-2-methyl-1-((R)-5-oxopyrrolidine-2-carbonyl)pyrrolidine-2-carboxamide] gave a Ki [1] of 526 nM.

In the case of `C[C@@]1(C(=O)NCc2cc(Cl)ccc2CN)CCCN1C(=O)c1ccc(Cl)[nH]1` [Compound 44, (S)-N-(2-(aminomethyl)-5-chlorobenzyl)-1-(5-chloro-1H-pyrrole-2-carbonyl)-2-methylpyrrolidine-2-carboxamide], the Ki [1] is reported as 104 nM.

For `Cc1ccc(C(=O)N2CCC[C@@]2(C)C(=O)NCc2cc(Cl)ccc2CN)[nH]1` [Compound 45, (S)-N-(2-(aminomethyl)-5-chlorobenzyl)-2-methyl-1-(5-methyl-1H-pyrrole-2-carbonyl)pyrrolidine-2-carboxamide], the Ki [1] was 93 nM.
